From patent publication US9981942B2, “Piperidine derivatives having multimodal activity against pain” (LABORATORIOS DEL DR. ESTEVE S.A., priority 2013, dated 2018)

test system: σ1 receptor and the μ-opiod receptor; experiment: μ and σ1 dual binding: combined class from the Ki of both radioligand assays; design: species or system human; key to μ and σ1 dual binding: +: Both Ki-μ and Ki-σ1>=500 nM; ++: One Ki<500 nM while the other Ki is >=500 nM; +++: Both Ki-μ and Ki-σ1<500 nM; ++++: Both Ki-μ and Ki-σ1<100 nM; details: combined class for Ki-μ and Ki-σ1; transfected HEK-293 membranes (σ1), transfected CHO-K1 cell membranes (μ)
Procedure: To investigate binding properties of σ1 receptor ligands to human σ1 receptor, transfected HEK-293 membranes and [^3H](+)-pentazocine (Perkin Elmer, NET-1056), as the radioligand, were used. The assay was carried out with 7 μg of membrane suspension, 5 nM of [^3H](+)-pentazocine in either absence or presence of either buffer or 10 μM Haloperidol for total and non-specific binding, respectively. Binding buffer contained Tris-HCl 50 mM at pH 8. Plates were incubated at 37° C. for 120 minutes. After the incubation period, the reaction mix was then transferred to MultiScreen HTS, FC plates (Millipore), filtered and plates were washed 3 times with ice-cold 10 mM Tris-HCL (pH7.4). Filters were dried and counted at approximately 40% efficiency in a MicroBeta scintillation counter (Perkin-Elmer) using EcoScint liquid scintillation cocktail
To investigate binding properties of mu-opioid receptor ligands to human μ-opioid receptor, transfected CHO-K1 cell membranes and [^3H]-DAMGO (Perkin Elmer, ES-542-C), as the radioligand, were used. The assay was carried out with 20 μg of membrane suspension, 1 nM of [^3H]-DAMGO in either absence or presence of either buffer or 10 μM Naloxone for total and non-specific binding, respectively. Binding buffer contained Tris-HCl 50 mM, MgCl2 5 mM at pH 7.4. Plates were incubated at 27° C. for 60 minutes. After the incubation period, the reaction mix was then transferred to MultiScreen HTS, FC plates (Millipore), filtered and plates were washed 3 times with ice-cold 10 mM Tris-HCL (pH 7.4). Filters were dried and counted at approximately 40% efficiency in a MicroBeta scintillation counter (Perkin-Elmer) using EcoScint liquid scintillation cocktail.
The following scale as been adopted for representing the binding to the σ1 receptor and the μ-opiod receptor expressed as Ki: • + Both Ki-μ and Ki-σ1>=500 nM • ++ One Ki<500 nM while the other Ki is >=500 nM • +++ Both Ki-μ and Ki-σ1<500 nM • ++++ Both Ki-μ and Ki-σ1<100 nM

| SMILES | μ and σ1 dual binding |
| --- | --- |
| CS(=O)(=O)Nc1cccc(C2CCN(Cc3cn([C@H]4c5ccccc5C[C@@H]4O)nn3)CC2)c1 [Example 91, N-(3-(1-((1-((1S,2S)-2-hydroxy-2,3-dihydro-1H-inden-1-yl)-1H-1,2,3-triazol-4-yl)methyl)piperidin-4-yl)phenyl)methanesulfonamide] | ++ |
| Oc1ccc(C(F)(F)F)c(C2CCN(Cc3cn(-c4ccccc4)nn3)CC2)c1 [Example 12, 3-(1-((1-phenyl-1H-1,2,3-triazol-4-yl)methyl)piperidin-4-yl)-4-(trifluoromethyl)phenol] | ++ |
| COc1cccnc1Cn1cc(CN2CCC(c3cccc(O)c3)CC2)nn1 [Example 158, 3-(1-((1-((3-methoxypyridin-2-yl)methyl)-1H-1,2,3-triazol-4-yl)methyl)piperidin-4-yl)phenol] | ++ |
| CCS(=O)(=O)Nc1cccc(C2CCN(Cc3cn(Cc4ccccn4)nn3)CC2)c1 [Example 112, N-(3-(1-((1-(pyridin-2-ylmethyl)-1H-1,2,3-triazol-4-yl)methyl)piperidin-4-yl)phenyl)ethanesulfonamide] | ++ |
| CS(=O)(=O)Nc1cccc(C2CCN(Cc3cn([C@@H]4c5ccccc5C[C@H]4O)nn3)CC2)c1 (racemic) [Example 70, (±)-(trans)-N-(3-(1-((1-(2-hydroxy-2,3-dihydro-1H-inden-1-yl)-1H-1,2,3-triazol-4-yl)methyl)piperidin-4-yl)phenyl)methanesulfonamide] | ++ |
| CC(C)S(=O)(=O)Nc1cccc([C@H]2CCN(Cc3cn(-c4ccccc4)nn3)C[C@H]2O)c1 (racemic) [Example 127, N-(3-((3S,4R)-3-hydroxy-1-((1-phenyl-1H-1,2,3-triazol-4-yl)methyl)piperidin-4-yl)phenyl)propane-2-sulfonamide] | ++ |
| c1ccc(-n2cc(CN3CCC(c4cccc5[nH]cnc45)CC3)nn2)cc1 [Example 11, 4-(1-((1-phenyl-1H-1,2,3-triazol-4-yl)methyl)piperidin-4-yl)-1H-benzo[d]imidazole] | ++ |
| CCC(=O)Nc1cccc(C2CCN(Cc3cn([C@@H]4c5ccccc5C[C@H]4O)nn3)CC2)n1 [Example 204, N-(6-(1-((1-((1R,2R)-2-hydroxy-2,3-dihydro-1H-inden-1-yl)-1H-1,2,3-triazol-4-yl)methyl)piperidin-4-yl)pyridin-2-yl)propionamide] | ++ |
| CC(C)S(=O)(=O)Nc1cccc([C@@H]2CCN(Cc3cn(Cc4ccccc4)nn3)C[C@@H]2O)c1 [Example 123, N-(3-((3R,4S)-1-((1-benzyl-1H-1,2,3-triazol-4-yl)methyl)-3-hydroxypiperidin-4-yl)phenyl)propane-2-sulfonamide] | ++ |
| CC(C)S(=O)(=O)Nc1cccc(C2CCN(Cc3cn(Cc4cc(N=[N+]=[N-])ccn4)nn3)CC2)c1 [Example 128] | ++ |
| CC(C)(O)COc1ccc(-n2cc(CN3CCC(c4cccc(O)c4)CC3)nn2)cc1 [Example 106, 3-(1-((1-(4-(2-hydroxy-2-methylpropoxy)phenyl)-1H-1,2,3-triazol-4-yl)methyl)piperidin-4-yl)phenol] | ++ |
| CCC(=O)Nc1cccc(C2CCN(Cc3cn(-c4ccccc4F)nn3)CC2)n1 [Example 211, N-(6-(1-((1-(2-fluorophenyl)-1H-1,2,3-triazol-4-yl)methyl)piperidin-4-yl)pyridin-2-yl)propionamide] | ++ |
| CS(=O)(=O)Nc1cccc(C2CCN(Cc3cn(Cc4cccnc4)nn3)CC2)c1 [Example 99, N-(3-(1-((1-(pyridin-3-ylmethyl)-1H-1,2,3-triazol-4-yl)methyl)piperidin-4-yl)phenyl)methanesulfonamide] | ++ |
| Oc1cccc(C2CCN(Cc3cn([C@@H]4CCC[C@H]4O)nn3)CC2)c1 (racemic) [Example 5, (±)-(trans)-3-(1-((1-(2-hydroxycyclopentyl)-1H-1,2,3-triazol-4-yl)methyl)piperidin-4-yl)phenol] | ++ |

same assay, conditions: transfected HEK-293 membranes (σ1), transfected CHO-K1 cell membranes (μ)

| SMILES | Ki range for both μ and σ1 (dual-binding class) |
| --- | --- |
| c1ccc(-n2cc(CN3CCC(c4cccc(Nc5nccs5)c4)CC3)nn2)cc1 [Example 225, N-(3-(1-((1-phenyl-1H-1,2,3-triazo1-4-yl)methyl)piperidin-4-yl)phenyl)thiazol-2-amine] | < 100 nM |
| CC(C)S(=O)(=O)Nc1cccc(C2CCN(Cc3cn(Cc4cccc(F)n4)nn3)CC2)c1 [Example 116, N-(3-(1-((1-((6-fluoropyridin-2-yl)methyl)-1H-1,2,3-triazol-4-yl)methyl)piperidin-4-yl)phenyl)propane-2-sulfonamide] | < 500 nM |
| CS(=O)(=O)Nc1cccc(C2CCN(Cc3cn(Cc4ccccc4)cn3)CC2)c1 [Example 183, N-(3-(1-((1-benzyl-1H-imidazol-4-yl)methyl)piperidin-4-yl)phenyl)methanesulfonamide] | < 500 nM |
| Oc1ccc(Cn2cc(CN3CCC(c4cccc(O)c4)CC3)nn2)nc1 [Example 159, 6-((4-((4-(3-hydroxyphenyl)piperidin-1-yl)methyl)-1H-1,2,3-triazol-1-yl)methyl)pyridin-3-ol] | ≥ 500 nM |
| Oc1cccc(C2CCN(Cc3cn([C@@H]4c5ccccc5C[C@@H]4O)nn3)CC2)c1 [Example 88, (1R,2S)-1-(4-((4-(3-hydroxyphenyl)piperidin-1-yl)methyl)-1H-1,2,3-triazol-1-yl)-2,3-dihydro-1H-inden-2-ol] | < 500 nM |
| Oc1cccc(C2CCN(Cc3cn(Cc4cccnc4)nn3)CC2)c1 [Example 145, 3-(1-((1-(pyridin-3-ylmethyl)-1H-1,2,3-triazol-4-yl)methyl)piperidin-4-yl)phenol] | < 500 nM |
| CC(C)S(=O)(=O)Nc1cccc(C2CCN(Cc3cn(Cc4ccccn4)nn3)CC2)n1 [Example 206, N-(6-(1-((1-(pyridin-2-ylmethyl)-1H-1,2,3-triazol-4-yl)methyl)piperidin-4-yl)pyridin-2-yl)propane-2-sulfonamide] | < 500 nM |
| Oc1cccc(C2CCN(Cc3cnn(Cc4ncccc4F)c3)CC2)c1 [Example 172, 3-(1-((1-((3-fluoropyridin-2-yl)methyl)-1H-pyrazol-4-yl)methyl)piperidin-4-yl)phenol] | < 500 nM |
| Oc1cccc(C2CCN(Cc3cn(Cc4ncccc4F)nn3)CC2)c1 [Example 134, 3-(1-((1-((3-fluoropyridin-2-yl)methyl)-1H-1,2,3-triazol-4-yl)methyl)piperidin-4-yl)phenol] | < 500 nM |
| CC(C)S(=O)(=O)Nc1cccc([C@@H]2CCN(Cc3cn(-c4ccccc4)nn3)C[C@@H]2O)c1 (racemic) [Example 115, N-(3-((3R,4S)-3-hydroxy-1-((1-phenyl-1H-1,2,3-triazol-4-yl)methyl)piperidin-4-yl)phenyl)propane-2-sulfonamide] | < 500 nM |
| CS(=O)(=O)Nc1cccc(C2CCN(Cc3cc(Cc4ccccc4)no3)CC2)c1 [Example 178, N-(3-(1-((3-benzylisoxazol-5-yl)methyl)piperidin-4-yl)phenyl)methanesulfonamide] | < 500 nM |
| Oc1cccc(C2CCN(Cc3cn([C@@H]4c5ccccc5C[C@H]4O)nn3)CC2)c1 [Example 78, (1R,2R)-1-(4-((4-(3-hydroxyphenyl)piperidin-1-yl)methyl)-1H-1,2,3-triazol-1-yl)-2,3-dihydro-1H-inden-2-ol] | < 500 nM |
| Oc1cccc(C2CCN(Cc3cn(-c4ccccc4F)nn3)CC2)c1 [Example 142, 3-(1-((1-(2-fluorophenyl)-1H-1,2,3-triazol-4-yl)methyl)piperidin-4-yl)phenol] | < 100 nM |
| N#Cc1ccc(Cn2cc(CN3CCC(c4cccc(O)c4)CC3)nn2)cc1 [Example 43, 4-((4-((4-(3-hydroxyphenyl)piperidin-1-yl)methyl)-1H-1,2,3-triazol-1-yl)methyl)benzonitrile] | < 100 nM |
| Oc1cccc(C2CCN(Cc3cn(Cc4ccc(F)cn4)nn3)CC2)c1 [Example 133, 3-(1-((1-((5-fluoropyridin-2-yl)methyl)-1H-1,2,3-triazol-4-yl)methyl)piperidin-4-yl)phenol] | < 500 nM |
| Oc1cccc(C2CCN(Cc3cn(-c4ccc(F)cc4)nn3)CC2)c1 [Example 36, 3-(1-((1-(4-fluorophenyl)-1H-1,2,3-triazol-4-yl)methyl)piperidin-4-yl)phenol] | < 100 nM |
